Reference: patent publication US20250214942A1, “INHIBITORS OF RECEPTOR INTERACTING PROTEIN KINASE I FOR THE TREATMENT OF DISEASE” (Board of Regents, The University of Texas System, priority 2019, published 2025)
pIC50: −log10 of the molar value. Where two headings read alike, the source gives them in different places.

Columns and labels:
RIPK1 = RIPK1 (Homo sapiens (Human), UniProt Q13546); assay: ADP-Glo kinase assay (RIPK1 activity, conversion of ATP to ADP); format: biochemical; conditions: for pIC50: 5 nM RIPK1, 50 μM ATP, 6 h reaction, read-out: RIPK1 Enzyme Avg IC50
Sequence of RIPK1 (Q13546 1-327): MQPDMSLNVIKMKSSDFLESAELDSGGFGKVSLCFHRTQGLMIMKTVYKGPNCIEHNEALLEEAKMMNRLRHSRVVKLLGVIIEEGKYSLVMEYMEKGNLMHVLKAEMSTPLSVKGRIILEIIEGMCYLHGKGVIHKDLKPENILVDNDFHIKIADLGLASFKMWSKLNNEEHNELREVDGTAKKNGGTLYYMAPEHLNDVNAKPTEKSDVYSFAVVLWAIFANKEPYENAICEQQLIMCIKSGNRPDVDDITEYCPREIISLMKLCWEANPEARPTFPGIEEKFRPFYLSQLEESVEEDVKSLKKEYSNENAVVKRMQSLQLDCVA
Method in brief: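 RIPK1 (5 nM final) was preincubated 10 min at rt with 1:3-diluted compounds in HEPES pH 7.5/MgCl2/DTT/BSA/CHAPS buffer. ATP (50 μM final) was then added for 6 h, and ADP formed was read by ADP-Glo luminescence. IC50 values came from four-parameter logistic fitting.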

[1] = test system: human monocytic cell line U937; assay: Human U937 cellular necroptosis assay (TNFalpha + z-VAD-FMK, Cell Titer-Glo viability); format: cell-based; conditions: U937 cells, 25 ng/mL human TNFalpha + 25 μM z-VAD-FMK, read-out: hU937 Avg IC50
Method in brief: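 Readout is CellTiter-Glo 2.0 luminescence after 22 h at 37° C with compound, in cells triggered by human TNFalpha (25 ng/mL) and z-VAD-FMK (25 μM) in phenol red-free RPMI/10% FBS. Values are run-averaged IC50s from a four-parameter logistic curve.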

Row | SMILES | pIC50 (RIPK1) | observed potency relative to the other enantiomer (RIPK1; enantiomers separated by SFC, assay not named) | pIC50 ([1]; Homo sapiens, U-937, 22 h) | pIC50 ([1]; 22 h)
1 | O=C(N1N=CCC1c1cc(F)cc(F)c1)C12CC(Cn3cc4c(n3)CCC4)(C1)C2 (stereo not shown) [Example 144, (5-(3,5-difluorophenyl)-4,5-dihydro-1H-pyrazol-1-yl)(3-((5,6-dihydrocyclopenta[c]-pyrazol-2(4H)-yl)methyl)-bicyclo[1.1.1]pentan-1-yl)methanone] | 6.84 |  | 5.93 | 
2 | O=C(N1N=CCC1c1cc(F)cc(F)c1)C12CC(Cn3ncc4ccc(F)cc43)(C1)C2 (stereo not shown) [Example 70, (5-(3,5-difluorophenyl)-4,5-dihydro-1H-pyrazol-1-yl)(3-((6-fluoro-1H-indazol-1-yl)-methyl)bicyclo[1.1.1]pentan-1-yl)methanone] | 7.47 |  | 7.59 | 
3 | O=C(N1CC(F)CC1c1cccc(F)c1)C12CC(Cn3ncc4ncccc43)(C1)C2 (stereo not shown) [Example 48, (3-((1H-pyrazolo[4,3-b]pyridin-1-yl)methyl)bicyclo[1.1.1]pentan-1-yl)-(4-fluoro-2-(3-fluorophenyl)pyrrolidin-1-yl)methanone] | 6.73 |  | 5.89 | 
4 | O=C(N1N=CCC1c1cc(F)cc(F)c1)C12CC(Cn3ncc4cc(F)ccc43)(C1)C2 (stereo not shown) [Example 4, (5-(3,5-Difluorophenyl)-4,5-dihydro-1H-pyrazol-1-yl)(3-((5-fluoro-1H-indazol-1-yl)methyl)bicyclo[1.1.1]pentan-1-yl)methanone] | 7.72 |  | 8.05 | 
5 | O=C(N1N=CCC1c1cc(F)cc(F)c1)C12CC(Cn3cc4ccc(F)cc4n3)(C1)C2 (stereo not shown) [Example 62, (5-(3,5-difluorophenyl)-4,5-dihydro-1H-pyrazol-1-yl)(3-((6-fluoro-2H-indazol-2-yl)methyl)bicyclo[1.1.1]-pentan-1-yl)methanone] | 7.34 |  | 6.88 | 
6 | O=C(N1N=CCC1c1cc(F)cc(F)c1)C12CC(Cn3nc4ccccc4c3Cl)(C1)C2 (stereo not shown) [Example 140, (3-((3-chloro-2H-indazol-2-yl)methyl)bicyclo[1.1.1]-pentan-1-yl)(5-(3,5-difluorophenyl)-4,5-dihydro-1H-pyrazol-1-yl)methanone] | 7.31 |  | 7.28 | 
7 | N#Cc1cnn(CC23CC(C(=O)N4N=CCC4c4cc(F)cc(F)c4)(C2)C3)c1 (stereo not shown) [Example 71, 1-((3-(5-(3,5-difluorophenyl)-4,5-dihydro-1H-pyrazole-1-carbonyl)bicyclo[1.1.1]-pentan-1-yl)methyl)-1H-pyrazole-4-carbonitrile] | 7.41 |  | 6.87 | 
8 | Cc1cnn(CC23CC(C(=O)N4N=CCC4c4cc(F)cc(F)c4)(C2)C3)c1 (stereo not shown) [Example 74, (5-(3,5-difluorophenyl)-4,5-dihydro-1H-pyrazol-1-yl)(3-((4-methyl-1H-pyrazol-1-yl)-methyl)bicyclo[1.1.1]pentan-1-yl)methanone] | 6.91 |  | 6.29 | 
9 | NC(=O)c1cn(CC23CC(C(=O)N4N=CCC4c4cc(F)cc(F)c4)(C2)C3)nn1 (stereo not shown) [Example 54, 1-((3-(5-(3,5-difluorophenyl)-4,5-dihydro-1H-pyrazole-1-carbonyl)-bicyclo[1.1.1]pentan-1-yl)methyl)-1H-1,2,3-triazole-4-carboxamide] | 6.39 |  | 5.58 | 
10 | O=C(N1N=CCC1c1cc(F)cc(F)c1)C12CC(COc3cc(Br)ncn3)(C1)C2 (stereo not shown) [Example 6, (3-(((6-Bromopyrimidin-4-yl)oxy)methyl)bicyclo[1.1.1]pentan-1-yl)(5-(3,5-difluorophenyl)-4,5-dihydro-1H-pyrazol-1-yl)methanone] | 7.64 |  | 7.70 | 
11 | Cn1cc(-c2cc(OCC34CC(C(=O)N5CC(F)CC5c5cccc(F)c5)(C3)C4)ncn2)cn1 (single isomer, unassigned) [Example 30, (4-Fluoro-2-(3-fluorophenyl)pyrrolidin-1-yl)(3-(((6-(1-methyl-1H-pyrazol-4-yl)pyrimidin-4-yl)oxy)methyl)bicyclo[1.1.1]pentan-1-yl)methanone] | 6.91 |  |  | 6.15
12 | O=C(N1N=CCC1c1cc(F)cc(F)c1)C12CC(Cn3cnc4ncccc43)(C1)C2 (stereo not shown) [Example 193, (3-((1H-imidazo[4,5-b]-pyridin-1-yl)methyl)-bicyclo[1.1.1]pentan-1-yl)(5-(3,5-difluorophenyl)-4,5-dihydro-1H-pyrazol-1-yl)methanone and (3-((3H-imidazol[4,5-b]pyridin-3-yl)methyl)-bicyclo[1.1.1]pentan-1-yl)(5-(3,5-difluorophenyl)-4,5-dihydro-1H-pyrazol-1-yl)methanone] | 6.53 |  |  | 5.86
13 | O=C(N1N=CCC1c1cc(F)cc(F)c1)C12CC(CF)(C1)C2 (stereo not shown) [Example 5, (5-(3,5-Difluorophenyl)-4,5-dihydro-1H-pyrazol-1-yl)(3-(fluoromethyl)-bicyclo[1.1.1]pentan-1-yl)methanone] | 7.77 |  | 7.70 | 

Now from value to compound, other results behind:

Row | pIC50 (RIPK1) | observed potency relative to the other enantiomer (RIPK1; enantiomers separated by SFC, assay not named) | SMILES | pIC50 ([1]; Homo sapiens, U-937, 22 h) | pIC50 ([1]; 22 h)
14 | 6.69 |  | Cc1nn(CC23CC(C(=O)N4N=CCC4c4cc(F)cc(F)c4)(C2)C3)c2ccccc12 (stereo not shown) [Example 153, (5-(3,5-difluorophenyl)-4,5-dihydro-1H-pyrazol-1-yl)(3-((3-methyl-1H-indazol-1-yl)-methyl)bicyclo[1.1.1]pentan-1-yl)methanone] | 6.26 | 
15 | 6.94 |  | N#Cc1cn(CC23CC(C(=O)N4N=CCC4c4cc(F)cc(F)c4)(C2)C3)nn1 (stereo not shown) [Example 163, 1-((3-(5-(3,5-difluorophenyl)-4,5-dihydro-1H-pyrazole-1-carbonyl)bicyclo[1.1.1]-pentan-1-yl)methyl)-1H-1,2,3-triazole-4-carbonitrile] | 6.14 | 
16 | 7.72 |  | N#Cc1ccc(OCC23CC(C(=O)N4N=CCC4c4cc(F)cc(F)c4)(C2)C3)nc1 (stereo not shown) [Example 320, 6-((3-(5-(3,5-difluorophenyl)-4,5-dihydro-1H-pyrazole-1-carbonyl)bicyclo[1.1.1]pentan-1-yl)methoxy)nicotinonitrile] | 7.52 | 
17 | 6.65 |  | N#Cc1ccc2c(cnn2CC23CC(C(=O)N4CCC4c4ccc(Cl)cc4)(C2)C3)c1 (stereo not shown) [Example 233, 1-((3-(2-(4-chlorophenyl)-azetidine-1-carbonyl)bicyclo-[1.1.1]pentan-1-yl)methyl)-1H-indazole-5-carbonitrile] | 5.92 | 
18 | 8.03 |  | N#Cc1ccc2c(ccn2CC23CC(C(=O)N4N=CCC4c4cc(F)cc(F)c4)(C2)C3)n1 (stereo not shown) [Example 210, 1-((3-(5-(3,5-difluorophenyl)-4,5-dihydro-1H-pyrazole-1-carbonyl)bicyclo[1.1.1]pentan-1-yl)methyl)-1H-pyrrolo[3,2-b]pyridine-5-carbonitrile] | 8.00 | 
19 | 5.95 |  | O=C(N1N=CCC1c1cc(F)cc(F)c1)C12CC(Cn3cc(C4CC4)nn3)(C1)C2 (stereo not shown) [Example 159, (3-((4-cyclopropyl-1H-1,2,3-triazol-1-yl)methyl)bicyclo-[1.1.1]pentan-1-yl)(5-(3,5-difluorophenyl)-4,5-dihydro-1H-pyrazol-1-yl)methanone] | 5.44 | 
20 | 7.74 |  | O=C(N1N=CCC1c1cc(F)cc(F)c1)C12CC(COc3ccc(F)cc3Cl)(C1)C2 (stereo not shown) [Example 334, (3-((2-chloro-4-fluoro-phenoxy)methyl)bicyclo-[1.1.1]pentan-1-yl)(5-(3,5-difluorophenyl)-4,5-dihydro-1H-pyrazol-1-yl)methanone] | 7.35 | 
21 | 7.24 |  | COc1ccn(CC23CC(C(=O)N4N=CCC4c4cc(F)cc(F)c4)(C2)C3)n1 (stereo not shown) [Example 164, (5-(3,5-difluorophenyl)-4,5-dihydro-1H-pyrazol-1-yl)(3-((3-methoxy-1H-pyrazol-1-yl)methyl)bicyclo[1.1.1]-pentan-1-yl)methanone] | 6.67 | 
22 | 7.30 |  | O=C(N1N=CCC1c1cc(F)cc(F)c1)C12CC(Cn3cc(F)c4ncc(F)cc43)(C1)C2 (stereo not shown) [Example 161, (3-((3,6-difluoro-1H-pyrrolo-[3,2-b]pyridin-1-yl)methyl)-bicyclo[1.1.1]pentan-1-yl)(5-(3,5-difluorophenyl)-4,5-dihydro-1H-pyrazol-1-yl)methanone] | 6.80 | 
23 | 7.72 |  | N#Cc1ccc2c(cnn2CC23CC(C(=O)N4CC(F)CC4c4cccc(F)c4)(C2)C3)c1 (stereo not shown) [Example 176, 1-((3-(4-fluoro-2-(3-fluoro-phenyl)pyrrolidine-1-carbonyl)bicyclo[1.1.1]-pentan-1-yl)methyl)-1H-indazole-5-carbonitrile] | 7.06 | 
24 | 6.09 |  | N#CC1CCN(CC23CC(C(=O)N4N=CCC4c4cc(F)cc(F)c4)(C2)C3)C1 (stereo not shown) [Example 155, 1-((3-(5-(3,5-difluorophenyl)-4,5-dihydro-1H-pyrazole-1-carbonyl)bicyclo[1.1.1]-pentan-1-yl)methyl)-pyrrolidine-3-carbonitrile] | 5.28 | 
25 |  | more potent isomer | N#Cc1cnc(OCC23CC(C(=O)N4N=CC[C@H]4c4cc(F)cc(F)c4)(C2)C3)cn1 [Example 201, (S)-5-((3-(5-(3,5-difluorophenyl)-4,5-dihydro-1H-pyrazole-1-carbonyl)bicyclo[1.1.1]pentan-1-yl)methoxy)pyrazine-2-carbonitrile] | 8.15 | 
26 | 7.74 |  | O=C(N1N=CCC1c1cc(F)cc(F)c1)C12CC(COc3ccc(F)cc3F)(C1)C2 (stereo not shown) [Example 335, (3-((2,4-difluorophenoxy)-methyl)bicyclo[1.1.1]pentan-1-yl)(5-(3,5-difluorophenyl)-4,5-dihydro-1H-pyrazol-1-yl)methanone] | 7.34 | 
